In patent US12252508B2, “Ginsenoside and anti-inflammatory composition comprising same” (AMOREPACIFIC CORPORATION, priority 2018, dated 2025):
“Also recorded” adds a separate entry of the source.

Experiments:
Assay type in all cases: cell-based
[1] = tested on: tumor necrosis factor α (TNF-α); assay: TNF-α secretion by ELISA in LPS-treated RAW 264.7 macrophages; settings: RAW 264.7, serum-free medium, 1 or 10 μM 2 hours, then 10 ng/mL LPS 6 hours, FIG. 17
Description: (§1) RAW 264.7 macrophages were used as in Test Example 2. A serum-free medium without comprising FBS was used for the measurement of the amount of cytokines. After pretreating the cells for 2 hours with each ginsenoside at 1 or 10 μM under the same condition as in Test Example 1 and then treating with 10 ng/mL LPS for 6 hours, only the medium was recovered and the secretion of pro-inflammatory cytokines, tumor necrosis factor α (TNF-α), interleukin 1β (IL-1β) and IL-6, was measured using an enzyme-linked immunosorbent assay kit (Abcam).

[2] = tested on: interleukin 1β (IL-1β); assay: IL-1β secretion by ELISA in LPS-treated RAW 264.7 macrophages; settings: RAW 264.7, serum-free medium, 1 or 10 μM 2 hours, then 10 ng/mL LPS 6 hours, FIG. 18
Description: as §1

[3] = tested on: IL-6; assay: IL-6 secretion by ELISA in LPS-treated RAW 264.7 macrophages; settings: RAW 264.7, serum-free medium, 1 or 10 μM 2 hours, then 10 ng/mL LPS 6 hours, FIG. 19
Description: as §1

[4] = tested on: IL-1β; assay: IL-1β gene expression by qPCR in LPS-treated RAW 264.7 macrophages; settings: then 10 ng/mL LPS 6 hours
Description: (§2) RAW 264.7 macrophages purchased from ATCC were cultured in Dulbecco's modified Eagle's medium (Sigma) supplemented with 10% fetal bovine serum (FBS; HyClone) and 1% penicillin/streptomycin (Sigma) in a 5% CO2 incubator. After pretreating the RAW 264.7 cells with each of the 7 ginsenosides extracted from ginseng seed (GS #01 to GS #06 and GS #10; 10 μM each) for 2 hours, the cells were further treated with 10 ng/mL lipopolysaccharide (LPS; inflammation-induced group, Sigma) for 6 hours. Then, after extracting RNA using a Trizol™ reagent (Thermo Fisher Scientific), cDNA was synthesized using a RevertAid™ first-strand cDNA synthesis kit (Thermo Fisher Scientific). The expression of inflammation-related genes (IL-1β, IL-6 and iNOS) was observed using a CFX96 real-time quantitative PCR (qPCR) system (Bio-Rad).
(§3) RAW 264.7 macrophages were pretreated with ginsenosides Rg1, Rg3 and Rb1 (purchased from Sigma), which are marker compounds of red ginseng, as comparative examples of the present disclosure or the novel ginsenoside GS #10 (isolated from the ginseng seed extract) as an example of the present disclosure at 1 or 10 μM for 2 hours and then further treated with 10 ng/mL lipopolysaccharide (LPS) for 6 hours to induce inflammation. Then, after extracting RNA and synthesizing cDNA in the same manner as in Test Example 1, the expression of inflammation-related genes was observed by qPCR. […]

[5] = tested on: IL-6; assay: IL-6 gene expression by qPCR in LPS-treated RAW 264.7 macrophages; settings: then 10 ng/mL LPS 6 hours
Description: as §2, §3

[6] = tested on: iNOS; assay: iNOS gene expression by qPCR in LPS-treated RAW 264.7 macrophages; settings: then 10 ng/mL LPS 6 hours
Description: as §2, §3

[7] = tested on: inflammation-related genes (IL-1β, IL-6 and iNOS); assay: Overall anti-inflammatory effect from qPCR of inflammation-related genes (Test Example 2); settings: RAW 264.7; 1 or 10 μM, LPS 10 ng/mL; relative to Rg1; FIGS. 14-16
Description: as §2, §3

[8] = tested on: nitric oxide (NO) production in RAW264.7 macrophages; assay: Nitric oxide (NO) production by Griess reaction in LPS-treated RAW 264.7 macrophages; settings: 1 or 10 μM 1 hour, then 10 ng/mL LPS 1 hour, FIG. 20
Description: RAW 264.7 macrophages were treated with 10 μM L-NAME (NO production inhibitor; control group; Sigma), ginsenosides Rg1, Rg3 and Rb1 (purchased from Sigma), which are marker compounds of red ginseng, as comparative examples of the present disclosure or the novel ginsenoside GS #10 (extracted from ginseng seed) as an example of the present disclosure at 1 or 10 μM for 1 hour, and then treated with 10 ng/mL LPS for 1 hour. The amount of NO produced during 1 hour was measured using the Griess reaction. Briefly, after adding 50 μL of sulfanilamide solution to 50 μL of each ginsenoside sample, the mixture was incubated for 10 minutes at room temperature under protection from light. Then, after adding N-(1-napthyl)ethylenediamine solution (50 μL), the mixture was further incubated for 10 minutes at room temperature under protection from light. The […] of NO was measured at a wavelength of 540 nm using a Tecan Infinite® 200 Pro multiplate reader. Sodium nitrite (NaNO2) was used to create a standard curve.

[9] = tested on: SH-SY5Y cells; assay: Cytotoxicity, cell viability by CCK-8; settings: 0.1, 1, 5, 10, 20 and 50 μM, FIG. 21
Description: After adding 10 μL of CCK-8 reagent to SH-SY5Y cells (Dojindo, MD, USA) on a 96-well plate and maintaining at 37° C. for 2 hours, absorbance was measured at 450 nm.
Cell viability was represented as the percentage (%) of the absolute optical density of each sample with respect to an untreated sample. The concentrations of the novel ginsenoside GS #10 according to an exemplary embodiment of the present disclosure in the medium for culturing the cells were 0.1, 1, 5, 10, 20 and 50 μM.

Compound | secretion of TNF-α [1] | secretion of IL-1β [2] | secretion of IL-6 [3] | expression level of the IL-1β gene ([4]; 10 μM pretreatment 2 hours, compared to Compounds 1-6 at the same concentration, FIG. 11) | anti-inflammatory effect (IL-1β expression level) ([4]; 1 or 10 μM for 2 hours, compared to Rg1, Rg3 and Rb1, FIG. 14) | expression level of the IL-6 gene ([5]; 10 μM pretreatment 2 hours, compared to Compounds 1-6 at the same concentration, FIG. 12) | anti-inflammatory effect (IL-6 expression level) ([5]; 1 or 10 μM for 2 hours, compared to Rg1, Rg3 and Rb1, FIG. 15) | expression level of the iNOS gene ([6]; 10 μM pretreatment 2 hours, compared to Compounds 1-6 at the same concentration, FIG. 13) | anti-inflammatory effect (iNOS expression level) ([6]; 1 or 10 μM for 2 hours, compared to Rg1, Rg3 and Rb1, FIG. 16, listed as GS #10) | anti-inflammatory effect superior to that of Rg1 [7] | NO production-inhibiting ability compared to Rg1, Rg3 and Rb1 [8] | NO production ([8]; with increasing dosage) | cytotoxicity (cell viability, % of untreated sample) [9]
CC(C)=CCC[C@](C)(O[C@@H]1O[C@H](CO)[C@@H](O)[C@H](O)[C@H]1O)[C@H]1CC[C@]2(C)[C@@H]1[C@H](O)C[C@@H]1[C@@]3(C)CC[C@H](O)C(C)(C)[C@@H]3[C@@H](O[C@@H]3O[C@H](CO)[C@@H](O)[C@H](O)[C@H]3O)C[C@]12C [Rg1, ginsenoside Rg1] | decreased | decreased | decreased | – | – | – | – | – | – | – | – | – | –
CC(C)=CCC[C@](C)(O[C@@H]1O[C@H](CO[C@@H]2O[C@H](CO)[C@@H](O)[C@H](O)[C@H]2O)[C@@H](O)[C@H](O)[C@H]1O)[C@H]1CC[C@]2(C)[C@@H]1[C@H](O)C[C@@H]1[C@@]3(C)CC[C@H](O[C@@H]4O[C@H](CO)[C@@H](O)[C@H](O)[C@H]4O[C@@H]4O[C@H](CO)[C@@H](O)[C@H](O)[C@H]4O)C(C)(C)[C@@H]3CC[C@]12C [Rb1, ginsenoside Rb1] | decreased | decreased | decreased | – | – | – | – | – | – | – | – | – | –
CC(C)=CCC[C@](C)(O)[C@H]1CC[C@]2(C)[C@@H]1[C@H](O)C[C@@H]1[C@@]3(C)CC[C@H](O[C@@H]4O[C@H](CO)[C@@H](O)[C@H](O)[C@H]4O[C@@H]4O[C@H](CO)[C@@H](O)[C@H](O)[C@H]4O)C(C)(C)[C@@H]3CC[C@]12C [Rg3, ginsenoside Rg3] | decreased | decreased | decreased | – | – | – | – | – | – | – | – | – | –
CC1(C)C(=O)CC[C@@]2(C)C1[C@@H](O[C@H]1OC(CO)[C@H](O)C(O)C1O[C@H]1OC(CO)[C@H](O)C(O)C1O)C[C@]1(C)C2C[C@@H](O)C2C([C@]3(C)CC[C@H](C(C)(C)O)O3)CC[C@]21C (stereo partly drawn) [Compound 10, (20S,24R)-6-O-β-D-glucopyranosyl(1→2)-β-D-glucopyranoside-dammar-3-one-20,24-epoxy-6a,12b,25-triol] | significant decreased secretion | significant decreased secretion | significant decreased secretion | remarkably suppress | remarkably excellent anti-inflammatory effect | remarkably suppress | remarkably excellent anti-inflammatory effect | remarkably suppress | remarkably excellent anti-inflammatory effect; also recorded: decreased greatly | about 10 times | remarkably superior | decreased | no cytotoxicity
